Results taken from patent US20220117945A1, “ISOXAZOLE CARBOXAMIDE COMPOUNDS AND USES THEREOF” (NOVARTIS AG, priority 2017, published 2022).

test system: Atoh1 expression in mouse cerebellar neural precursor cells; assay: Atoh1 induction assay in mouse cerebellar neural precursor cells (NPCs), Atoh1-GFP reporter; format: cell-based; conditions: 10 doses 50 μM to 200 nM, 72 hours treatment, DMSO control = 1, more than 5 considered significant, read-out: fold difference (maximum fold difference of GFP average intensity in cell nuclei over the DMSO control)
Procedure: Compounds of the present disclosure were assessed for their ability to increase the Atoh1 expression in mouse cerebellar neural precursor cells. The ability of compounds of the present disclosure to induce new hair cell formation was assessed in ex vivo hair cell induction assay using 6-day-postnatal mouse cochlea explants with hair cell damage.
Atoh1 Induction Assay in Mouse Cerebellar Neural Precursor Cells (NPCs)
Atoh1 induction assay was conducted with in vitro cultured cerebellar neural precursor cells isolated from neonatal transgenic Atoh1-GFP mice. Atoh1 expression is mainly regulated by the enhancer, and the nuclear GFP was driven by the cloned enhancer sequence at 3′ of Atoh1 which had high conservation among mammalians. So Atoh1 induction could be reflected by GFP activation in cerebellar neural precursor cells (Helms et al., Development 2000; 127: 1185-1196; Lumpkin et al., Gene Expression Patterns 2003; 3: 389-395). Postnatal 3 days pups were dissected for cerebellum tissue isolation. The cerebellum tissue was cut into small pieces, and dissociated with 0.05% Trypsin for about 10 minutes at 37° C., and then filtered with a 70 uM cell strainer. The cells were cultured as neuropsheres for the first 2 days in ultra-low attachment dish/well-plate with DMEM/F12+1% N2 &2% B27 with 1% P/S, 20 ng/ml rhFGF2 and 20 ng/ml rhEGF (R&D Systems). Then the spheres were plated to the matrigel (1:30 diluted in DMEM/F12)-coated tissue culture dish for monolayer culture. After 4.5-5.5 days culture in vitro (DIV), cells were dissociated with 0.05% trypsin into single cells, and frozen after cell number calculation.
The cerebellar neural precursor cells (NPCs) were re-thawed from stock and cultured for another 2 days before used for Atoh1 induction assay. On the first day of assay, NPCs were seeded into matrigel-coated 384 well plates (Black view-plate, PE) at 2500 cells/well. After over-night culture, the NPCs were treated with representative compounds of the present disclosure with 1:2 serial dilutions for 10 doses, from 50 μM to 200 nM, with DMSO as negative control. After 72 hours treatment without medium change, the cells were fixed with 4% formalin for staining. Assay plates were stained with GFP antibody (Abcam, #13970, 1:1000) to amplify endogenous GFP signal and then read by Cellomics.

Which maximal fold induction does the source give for `CCNC(=O)C1CN(CCCCCNC(=O)c2cc(-c3ccc(F)cc3)on2)C1` [Example 86, N-(5-(3-(Ethylcarbamoyl)azetidin-1-yl)pentyl)-5-(4-fluorophenyl)isoxazole-3-carboxamide] here?
The maximal fold induction was 36.7.

For `CN1CCN(CCCCCNC(=O)c2cc(-c3cccs3)on2)CC1=O` [Example 38], which maximal fold induction is on record?
Its maximal fold induction is 34.3.

How did the maximal fold induction turn out when `O=C(NCCCCCN1CC(C(=O)N[C@H]2C[C@@H](O)C2)C1)c1cc(-c2ccc(F)cc2)on1` [Example 92, 5-(4-Fluorophenyl)-N-(5-(3-(((1,3-cis)-3-hydroxycyclobutyl)carbamoyl)azetidin-1-yl)pentyl)isoxazole-3-carboxamide] was run?
Its maximal fold induction is 13.

`CC(C)C[C@H]1CN(CCCCCNC(=O)c2cc(-c3cccs3)on2)CCN1` [Example 6, (S)—N-(5-(3-isobutylpiperazin-1-yl)pentyl)-5-(thiophen-2-yl)isoxazole-3-carboxamide] was tested. Which maximal fold induction did it give?
Its maximal fold induction is 9.

Which maximal fold induction does the source give for `CS(=O)(=O)C1CN(CCCCCNC(=O)c2cc(-c3cccs3)on2)C1` [Example 63] here?
Its maximal fold induction is 19.8.

For `N#CC1CN(CCCCCNC(=O)c2cc(-c3ccc(F)cc3)on2)C1` [Example 64], which maximal fold induction is on record?
Its maximal fold induction is 36.2.

Which maximal fold induction does the source give for `O=C(NCCCCCN1CC(F)C1)c1cc(-c2ccc(F)cc2)on1` [Example 44] here?
The maximal fold induction was 34.7.

Which maximal fold induction does the source give for `O=C(NCCCCCN1CC(C(=O)NC2CCCC2O)C1)c1cc(-c2cccs2)on1` (stereo not shown) [Example 83, N-(5-(3-((2-Hydroxycyclopentyl)carbamoyl)azetidin-1-yl)pentyl)-5-(thiophen-2-yl)isoxazole-3-carboxamide] here?
The maximal fold induction was 34.4.

`O=C(NCCCCCN1CCn2cncc2C1)c1cc(-c2cccs2)on1` [Example 94, N-(5-(5,6-dihydroimidazo[1,5-a]pyrazin-7(8H)-yl)pentyl)-5-(thiophen-2-yl)isoxazole-3-carboxamide] was tested. Which maximal fold induction did it give?
The maximal fold induction was 20.6.

How did the maximal fold induction turn out when `CC(=O)N1CCN(CCCCCNC(=O)c2cc(-c3ccc(F)cc3)on2)CC1` [Example 30] was run?
The maximal fold induction was 13.4.

How did the maximal fold induction turn out when `O=C(NCCCCCN1CC(C(=O)N[C@H]2C[C@@H](O)C2)C1)c1cc(-c2cccs2)on1` [Example 79, N-(5-(3-(((1,3-cis)-3-Hydroxycyclobutyl)carbamoyl)azetidin-1-yl)pentyl)-5-(thiophen-2-yl)isoxazole-3-carboxamide] was run?
Its maximal fold induction is 26.6.

With `O=C(NCCCCCN1CC(C(=O)NCCCO)C1)c1cc(-c2cccs2)on1` [Example 81, N-(5-(3-((3-Hydroxypropyl)carbamoyl)azetidin-1-yl)pentyl)-5-(thiophen-2-yl)isoxazole-3-carboxamide] as the compound, how does the maximal fold induction read?
The maximal fold induction was 33.

How did the maximal fold induction turn out when `O=C1CN(CCCCCNC(=O)c2cc(-c3cccs3)on2)CCN1` [Example 37] was run?
The maximal fold induction was 13.5.

With `CS(=O)(=O)NC1CN(CCCCCNC(=O)c2cc(-c3ccc(F)cc3)on2)C1` [Example 22, 5-(4-Fluorophenyl)-N-(5-(3-(methylsulfonamido)azetidin-1-yl)pentyl)isoxazole-3-carboxamide] as the compound, how does the maximal fold induction read?
The maximal fold induction was 25.5.

How did the maximal fold induction turn out when `O=C(NCCCCCN1CC(C(=O)N[C@H]2C[C@H](O)C2)C1)c1cc(-c2cccs2)on1` [Example 80, N-(5-(3-(((1,3-trans)-3-Hydroxycyclobutyl)carbamoyl)azetidin-1-yl)pentyl)-5-(thiophen-2-yl)isoxazole-3-carboxamide] was run?
The maximal fold induction was 47.2.

With `CC(=O)NC1CN(CCCCCNC(=O)c2cc(-c3cccs3)on2)C1` [Example 16, N-(5-(3-Acetamidoazetidin-1-yl)pentyl)-5-(thiophen-2-yl)isoxazole-3-carboxamide] as the compound, how does the maximal fold induction read?
Its maximal fold induction is 25.3.

Which maximal fold induction does the source give for `CN(C)C(=O)C1CN(CCCCCNC(=O)c2cc(-c3ccc(F)cc3)on2)C1` [Example 28] here?
The maximal fold induction was 28.6.

With `O=C(NCCCCCN1CC(F)(F)C1)c1cc(-c2cccs2)on1` [Example 58] as the compound, how does the maximal fold induction read?
Its maximal fold induction is 10.

For `O=C(NCCCCCN1CCCC(O)C1)c1cc(-c2cccs2)on1` (stereo not shown) [Example 57], which maximal fold induction is on record?
The maximal fold induction was 15.4.

Which maximal fold induction does the source give for `C[C@@H]1CNCCN1CCCCCNC(=O)c1cc(-c2cccs2)on1` [Example 5, (R)—N-(5-(2-Methylpiperazin-1-yl)pentyl)-5-(thiophen-2-yl)isoxazole-3-carboxamide] here?
The maximal fold induction was 32.5.

How did the maximal fold induction turn out when `O=C(NCCCCCN1CCC(O)CC1)c1cc(-c2cccs2)on1` [Example 39] was run?
The maximal fold induction was 20.5.

With `N#CC1CN(CCCCCNC(=O)c2cc(-c3cccs3)on2)C1` [Example 35] as the compound, how does the maximal fold induction read?
Its maximal fold induction is 29.7.

For `CN1CC2CCC(C1)N2CCCCCNC(=O)c1cc(-c2cccs2)on1` [Example 13, N-(5-(3-Methyl-3,8-diazabicyclo[3.2.1]octan-8-yl)pentyl)-5-(thiophen-2-yl)isoxazole-3-carboxamide], which maximal fold induction is on record?
Its maximal fold induction is 23.

How did the maximal fold induction turn out when `NS(=O)(=O)C1CN(CCCCCNC(=O)c2cc(-c3ccc(F)cc3)on2)C1` [Example 70] was run?
Its maximal fold induction is 14.

Which maximal fold induction does the source give for `O=C(NCCCCCN1CC(C(=O)N[C@H]2C[C@H](O)C2)C1)c1cc(-c2ccc(F)cc2)on1` [Example 89, 5-(4-Fluorophenyl)-N-(5-(3-(((1,3-trans)-3-hydroxycyclobutyl)carbamoyl)azetidin-1-yl)pentyl)isoxazole-3-carboxamide] here?
The maximal fold induction was 11.

For `NC(=O)C1CN(CCC(F)(F)CCNC(=O)c2cc(-c3cccs3)on2)C1` [Example 75, N-(5-(3-Carbamoylazetidin-1-yl)-3,3-difluoropentyl)-5-(thiophen-2-yl)isoxazole-3-carboxamide], which maximal fold induction is on record?
The maximal fold induction was 20.6.

Which maximal fold induction does the source give for `CC(C)(C)OC(=O)N1CCN(CCCCCNC(=O)c2cc(-c3cccs3)on2)CC1` [Example 2, tert-Butyl 4-(5-(5-(thiophen-2-yl)isoxazole-3-carboxamido)pentyl)piperazine-1-carboxylate] here?
Its maximal fold induction is 35.4.

With `N#CCNC(=O)C1CN(CCCCCNC(=O)c2cc(-c3ccc(F)cc3)on2)C1` [Example 88, N-(5-(3-((Cyanomethyl)carbamoyl)azetidin-1-yl)pentyl)-5-(4-fluorophenyl)isoxazole-3-carboxamide] as the compound, how does the maximal fold induction read?
Its maximal fold induction is 9.3.

`NS(=O)(=O)C1CN(CCCCCNC(=O)c2cc(-c3cccs3)on2)C1` [Example 72, N-(5-(3-sulfamoylazetidin-1-yl)pentyl)-5-(thiophen-2-yl)isoxazole-3-carboxamide] was tested. Which maximal fold induction did it give?
The maximal fold induction was 15.5.

`CN1CCN(CCCCCNC(=O)c2cc(-c3ccc(F)s3)on2)CC1` [Example 73, 5-(5-Fluorothiophen-2-yl)-N-(5-(4-methylpiperazin-1-yl)pentyl)isoxazole-3-carboxamide] was tested. Which maximal fold induction did it give?
Its maximal fold induction is 19.1.

For `CN1CCN(CCC(F)(F)CCNC(=O)c2cc(-c3cccs3)on2)CC1` [Example 74, N-(3,3-Difluoro-5-(4-methylpiperazin-1-yl)pentyl)-5-(thiophen-2-yl)isoxazole-3-carboxamide], which maximal fold induction is on record?
The maximal fold induction was 19.4.

With `N#CC1CCN(CCCCCNC(=O)c2cc(-c3cccs3)on2)C1` (stereo not shown) [Example 29] as the compound, how does the maximal fold induction read?
Its maximal fold induction is 20.1.

`O=C(NC1CN(CCCCCNC(=O)c2cc(-c3cccs3)on2)C1)OCCO` [Example 20, 2-Hydroxyethyl (1-(5-(5-(thiophen-2-yl)isoxazole-3-carboxamido)pentyl)azetidin-3-yl)carbamate] was tested. Which maximal fold induction did it give?
Its maximal fold induction is 29.4.

How did the maximal fold induction turn out when `O=C(NCCCCCN1CC(C(=O)NC2CC2)C1)c1cc(-c2cccs2)on1` [Example 62] was run?
The maximal fold induction was 26.6.
